The supplement of paper PMC8882468

Test system: HCI-016 (organoid from a triple-negative breast cancer xenograft)
Test: CTG-3D luminescence at 96 h relative to day-0 seeding control (ratio to day 0); higher = more growth / less cytotoxicity; PDxO 3D drug screen, 96 h, CTG-3D normalised to day-0 seeding control.
Conditions: 0.005 µM; days in culture: 172

SMILES | CTG-3D luminescence at 96 h
C[C@H](NC(=O)CCC(F)(F)F)C(=O)N[C@@H]1C(=O)N(CCO)c2ncccc2-c2ccccc21 [crenigacestat] | 1.71
COc1cccc2c1C(=O)c1c(O)c3c(c(O)c1C2=O)C[C@@](O)(C(=O)CO)C[C@@H]3O[C@H]1C[C@H](N)[C@H](O)[C@H](C)O1 [doxorubicin] | 1.73
C[C@]12CC[C@@H]3c4ccc(O)cc4C[C@@H](CCCCCCCCC[S+]([O-])CCCC(F)(F)C(F)(F)F)[C@H]3[C@@H]1CC[C@@H]2O (stereo partly specified) [fulvestrant] | 1.97
Nc1ccn([C@@H]2O[C@H](CO)[C@@H](O)C2(F)F)c(=O)n1 [gemcitabine] | 1.64
C=CC(=O)N1CCC[C@@H](n2nc(-c3ccc(Oc4ccccc4)cc3)c3c(N)ncnc32)C1 [ibrutinib] | 2
CN(Cc1cnc2nc(N)nc(N)c2n1)c1ccc(C(=O)N[C@@H](CCC(=O)O)C(=O)O)cc1 [methotrexate] | 1.56
CC1(C)CCC(c2ccc(Cl)cc2)=C(CN2CCN(c3ccc(C(=O)NS(=O)(=O)c4ccc(N[C@H](CCN5CCOCC5)CSc5ccccc5)c(S(=O)(=O)C(F)(F)F)c4)cc3)CC2)C1 [navitoclax] | 1.85
NC(=O)c1cccc2cn(-c3ccc([C@@H]4CCCNC4)cc3)nc12 [niraparib] | 2.02

Same assay, conditions: 0.005 µM; days in culture: 190

SMILES | CTG-3D luminescence at 96 h
C[C@H](NC(=O)CCC(F)(F)F)C(=O)N[C@@H]1C(=O)N(CCO)c2ncccc2-c2ccccc21 [crenigacestat] | 1.29
COc1cccc2c1C(=O)c1c(O)c3c(c(O)c1C2=O)C[C@@](O)(C(=O)CO)C[C@@H]3O[C@H]1C[C@H](N)[C@H](O)[C@H](C)O1 [doxorubicin] | 1.27
C[C@]12CC[C@@H]3c4ccc(O)cc4C[C@@H](CCCCCCCCC[S+]([O-])CCCC(F)(F)C(F)(F)F)[C@H]3[C@@H]1CC[C@@H]2O (stereo partly specified) [fulvestrant] | 1.85
Nc1ccn([C@@H]2O[C@H](CO)[C@@H](O)C2(F)F)c(=O)n1 [gemcitabine] | 1.52
C=CC(=O)N1CCC[C@@H](n2nc(-c3ccc(Oc4ccccc4)cc3)c3c(N)ncnc32)C1 [ibrutinib] | 1.45
CN(Cc1cnc2nc(N)nc(N)c2n1)c1ccc(C(=O)N[C@@H](CCC(=O)O)C(=O)O)cc1 [methotrexate] | 1.7
CC1(C)CCC(c2ccc(Cl)cc2)=C(CN2CCN(c3ccc(C(=O)NS(=O)(=O)c4ccc(N[C@H](CCN5CCOCC5)CSc5ccccc5)c(S(=O)(=O)C(F)(F)F)c4)cc3)CC2)C1 [navitoclax] | 1.9
NC(=O)c1cccc2cn(-c3ccc([C@@H]4CCCNC4)cc3)nc12 [niraparib] | 2.08

Same assay, conditions: 0.005 µM; days in culture: 199

SMILES | CTG-3D luminescence at 96 h
C[C@H](NC(=O)CCC(F)(F)F)C(=O)N[C@@H]1C(=O)N(CCO)c2ncccc2-c2ccccc21 [crenigacestat] | 1.49
COc1cccc2c1C(=O)c1c(O)c3c(c(O)c1C2=O)C[C@@](O)(C(=O)CO)C[C@@H]3O[C@H]1C[C@H](N)[C@H](O)[C@H](C)O1 [doxorubicin] | 1.53
C[C@]12CC[C@@H]3c4ccc(O)cc4C[C@@H](CCCCCCCCC[S+]([O-])CCCC(F)(F)C(F)(F)F)[C@H]3[C@@H]1CC[C@@H]2O (stereo partly specified) [fulvestrant] | 1.9
Nc1ccn([C@@H]2O[C@H](CO)[C@@H](O)C2(F)F)c(=O)n1 [gemcitabine] | 1.3
C=CC(=O)N1CCC[C@@H](n2nc(-c3ccc(Oc4ccccc4)cc3)c3c(N)ncnc32)C1 [ibrutinib] | 1.43
CN(Cc1cnc2nc(N)nc(N)c2n1)c1ccc(C(=O)N[C@@H](CCC(=O)O)C(=O)O)cc1 [methotrexate] | 1.56
CC1(C)CCC(c2ccc(Cl)cc2)=C(CN2CCN(c3ccc(C(=O)NS(=O)(=O)c4ccc(N[C@H](CCN5CCOCC5)CSc5ccccc5)c(S(=O)(=O)C(F)(F)F)c4)cc3)CC2)C1 [navitoclax] | 2.22
NC(=O)c1cccc2cn(-c3ccc([C@@H]4CCCNC4)cc3)nc12 [niraparib] | 1.96

Same assay, conditions: 0.1 µM; days in culture: 153

SMILES | CTG-3D luminescence at 96 h
C[C@H](NC(=O)CCC(F)(F)F)C(=O)N[C@@H]1C(=O)N(CCO)c2ncccc2-c2ccccc21 [crenigacestat] | 1.66
COc1cccc2c1C(=O)c1c(O)c3c(c(O)c1C2=O)C[C@@](O)(C(=O)CO)C[C@@H]3O[C@H]1C[C@H](N)[C@H](O)[C@H](C)O1 [doxorubicin] | 0.665
C[C@]12CC[C@@H]3c4ccc(O)cc4C[C@@H](CCCCCCCCC[S+]([O-])CCCC(F)(F)C(F)(F)F)[C@H]3[C@@H]1CC[C@@H]2O (stereo partly specified) [fulvestrant] | 2.05
Nc1ccn([C@@H]2O[C@H](CO)[C@@H](O)C2(F)F)c(=O)n1 [gemcitabine] | 0.96
C=CC(=O)N1CCC[C@@H](n2nc(-c3ccc(Oc4ccccc4)cc3)c3c(N)ncnc32)C1 [ibrutinib] | 2.11
CN(Cc1cnc2nc(N)nc(N)c2n1)c1ccc(C(=O)N[C@@H](CCC(=O)O)C(=O)O)cc1 [methotrexate] | 1.65
CC1(C)CCC(c2ccc(Cl)cc2)=C(CN2CCN(c3ccc(C(=O)NS(=O)(=O)c4ccc(N[C@H](CCN5CCOCC5)CSc5ccccc5)c(S(=O)(=O)C(F)(F)F)c4)cc3)CC2)C1 [navitoclax] | 1.77
NC(=O)c1cccc2cn(-c3ccc([C@@H]4CCCNC4)cc3)nc12 [niraparib] | 1.82

Same assay, conditions: 0.1 µM; days in culture: 172

SMILES | CTG-3D luminescence at 96 h
C[C@H](NC(=O)CCC(F)(F)F)C(=O)N[C@@H]1C(=O)N(CCO)c2ncccc2-c2ccccc21 [crenigacestat] | 1.66
COc1cccc2c1C(=O)c1c(O)c3c(c(O)c1C2=O)C[C@@](O)(C(=O)CO)C[C@@H]3O[C@H]1C[C@H](N)[C@H](O)[C@H](C)O1 [doxorubicin] | 1.29
C[C@]12CC[C@@H]3c4ccc(O)cc4C[C@@H](CCCCCCCCC[S+]([O-])CCCC(F)(F)C(F)(F)F)[C@H]3[C@@H]1CC[C@@H]2O (stereo partly specified) [fulvestrant] | 1.54
Nc1ccn([C@@H]2O[C@H](CO)[C@@H](O)C2(F)F)c(=O)n1 [gemcitabine] | 0.366
C=CC(=O)N1CCC[C@@H](n2nc(-c3ccc(Oc4ccccc4)cc3)c3c(N)ncnc32)C1 [ibrutinib] | 1.61
CN(Cc1cnc2nc(N)nc(N)c2n1)c1ccc(C(=O)N[C@@H](CCC(=O)O)C(=O)O)cc1 [methotrexate] | 1.51
CC1(C)CCC(c2ccc(Cl)cc2)=C(CN2CCN(c3ccc(C(=O)NS(=O)(=O)c4ccc(N[C@H](CCN5CCOCC5)CSc5ccccc5)c(S(=O)(=O)C(F)(F)F)c4)cc3)CC2)C1 [navitoclax] | 1.43
NC(=O)c1cccc2cn(-c3ccc([C@@H]4CCCNC4)cc3)nc12 [niraparib] | 1.56

Same assay, conditions: 0.1 µM; days in culture: 190

SMILES | CTG-3D luminescence at 96 h
C[C@H](NC(=O)CCC(F)(F)F)C(=O)N[C@@H]1C(=O)N(CCO)c2ncccc2-c2ccccc21 [crenigacestat] | 0.549
COc1cccc2c1C(=O)c1c(O)c3c(c(O)c1C2=O)C[C@@](O)(C(=O)CO)C[C@@H]3O[C@H]1C[C@H](N)[C@H](O)[C@H](C)O1 [doxorubicin] | 0.803
C[C@]12CC[C@@H]3c4ccc(O)cc4C[C@@H](CCCCCCCCC[S+]([O-])CCCC(F)(F)C(F)(F)F)[C@H]3[C@@H]1CC[C@@H]2O (stereo partly specified) [fulvestrant] | 1.28
Nc1ccn([C@@H]2O[C@H](CO)[C@@H](O)C2(F)F)c(=O)n1 [gemcitabine] | 0.261
C=CC(=O)N1CCC[C@@H](n2nc(-c3ccc(Oc4ccccc4)cc3)c3c(N)ncnc32)C1 [ibrutinib] | 1.11
CN(Cc1cnc2nc(N)nc(N)c2n1)c1ccc(C(=O)N[C@@H](CCC(=O)O)C(=O)O)cc1 [methotrexate] | 0.906
CC1(C)CCC(c2ccc(Cl)cc2)=C(CN2CCN(c3ccc(C(=O)NS(=O)(=O)c4ccc(N[C@H](CCN5CCOCC5)CSc5ccccc5)c(S(=O)(=O)C(F)(F)F)c4)cc3)CC2)C1 [navitoclax] | 1.65
NC(=O)c1cccc2cn(-c3ccc([C@@H]4CCCNC4)cc3)nc12 [niraparib] | 1.58

Same assay, conditions: 0.1 µM; days in culture: 199

SMILES | CTG-3D luminescence at 96 h
C[C@H](NC(=O)CCC(F)(F)F)C(=O)N[C@@H]1C(=O)N(CCO)c2ncccc2-c2ccccc21 [crenigacestat] | 1.38
COc1cccc2c1C(=O)c1c(O)c3c(c(O)c1C2=O)C[C@@](O)(C(=O)CO)C[C@@H]3O[C@H]1C[C@H](N)[C@H](O)[C@H](C)O1 [doxorubicin] | 1.33
C[C@]12CC[C@@H]3c4ccc(O)cc4C[C@@H](CCCCCCCCC[S+]([O-])CCCC(F)(F)C(F)(F)F)[C@H]3[C@@H]1CC[C@@H]2O (stereo partly specified) [fulvestrant] | 1.67
Nc1ccn([C@@H]2O[C@H](CO)[C@@H](O)C2(F)F)c(=O)n1 [gemcitabine] | 0.174
C=CC(=O)N1CCC[C@@H](n2nc(-c3ccc(Oc4ccccc4)cc3)c3c(N)ncnc32)C1 [ibrutinib] | 1.26
CN(Cc1cnc2nc(N)nc(N)c2n1)c1ccc(C(=O)N[C@@H](CCC(=O)O)C(=O)O)cc1 [methotrexate] | 1.47
CC1(C)CCC(c2ccc(Cl)cc2)=C(CN2CCN(c3ccc(C(=O)NS(=O)(=O)c4ccc(N[C@H](CCN5CCOCC5)CSc5ccccc5)c(S(=O)(=O)C(F)(F)F)c4)cc3)CC2)C1 [navitoclax] | 1.82
NC(=O)c1cccc2cn(-c3ccc([C@@H]4CCCNC4)cc3)nc12 [niraparib] | 1.54
